system: GST-Bcl-2; experiment: TR-FRET binding assay, Bcl-2; settings: TR-FRET Ki values
Description: Tb-anti-GST antibody was purchased from Invitrogen (Catalog No. PV4216).
Representative compounds were serially diluted in dimethyl sulfoxide (DMSO) starting at 50 μM (2× starting concentration; 10% DMSO) and 10 μL were transferred into a 384-well plate.
The samples were then mixed on a shaker for 1 minute and incubated for an additional 3 hours at room temperature. For each assay, the probe/antibody and protein/probe/antibody were included on each assay plate as negative and positive controls, respectively. Fluorescence was measured on the Envision (Perkin Elmer) using a 340/35 nm excitation filter and 520/525 (F-Bak peptide) and 495/510 nm (Tb-labeled anti-Histidine antibody) emission filters.
The inhibition constant (Ki) is the dissociation constant of an enzyme-inhibitor complex or a protein/small molecule complex, wherein the small molecule is inhibiting binding of one protein to another protein or peptide. […] Inhibition constants were determined using Wang's equation (Wang Z-X., An Exact Mathematical Expression For Describing Competitive Binding Of Two Different Ligands To A Protein Molecule. FEBS Lett. 1995, 360:111-4).

SMILES	Binding selectivity ratio (Bcl-XL Ki/Bcl-2 Ki)
CC1(C)CCC(CN2CCN(c3ccc(C(=O)NS(=O)(=O)c4ccc(NCCC5CCOCC5)c([N+](=O)[O-])c4)c(Oc4ccc5[nH]ccc5c4)c3)CC2)=C(c2ccc(Cl)cc2)C1 [EXAMPLE 291, 4-(4-{[2-(4-chlorophenyl)-4,4-dimethylcyclohex-1-en-1-yl]methyl}piperazin-1-yl)-2-(1H-indol-5-yloxy)-N-({3-nitro-4-[(2-tetrahydro-2H-pyran-4-ylethyl)amino]phenyl}sulfonyl)benzamide]	>1179.1
CC1(C)CCC(CN2CCN(c3ccc(C(=O)NS(=O)(=O)c4ccc(OC[C@H]5COCCO5)c([N+](=O)[O-])c4)c(Oc4ccc5[nH]ccc5c4)c3)CC2)=C(c2ccc(Cl)cc2)C1 [EXAMPLE 346, 4-(4-{[2-(4-chlorophenyl)-4,4-dimethylcyclohex-1-en-1-yl]methyl}piperazin-1-yl)-N-({4-[(2R)-1,4-dioxan-2-ylmethoxy]-3-nitrophenyl}sulfonyl)-2-(1H-indol-5-yloxy)benzamide]	11405.2
COCCNC(=O)c1ccc(S(=O)(=O)NC(=O)c2ccc(N3CCN(CC4=C(c5ccc(Cl)cc5)CC(C)(C)CC4)CC3)cc2Oc2ccc3[nH]ccc3c2)cc1 [EXAMPLE 332, 4-(4-{[2-(4-chlorophenyl)-4,4-dimethylcyclohex-1-en-1-yl]methyl}piperazin-1-yl)-2-(1H-indol-5-yloxy)-N-[(4-{[(2-methoxyethyl)amino]carbonyl}phenyl)sulfonyl]benzamide]	>52.5
CN(C)CCCCNc1ccc(S(=O)(=O)NC(=O)c2ccc(N3CCN(Cc4ccccc4-c4ccc(Cl)cc4)CC3)cc2Oc2ccccc2)cc1[N+](=O)[O-] [Example 156, 4-{4-[(4′-chloro-1,1′-biphenyl-2-yl)methyl]piperazin-1-yl}-N-[(4-{[4-(dimethylamino)butyl]amino}-3-nitrophenyl)sulfonyl]-2-phenoxybenzamide]	53.1
CC1(C)CCC(c2ccc(Cl)cc2)=C(CN2CCN(c3ccc(C(=O)NS(=O)(=O)c4ccc(NCC5CCOCC5)c([N+](=O)[O-])c4)c(Oc4ccc5[nH]ccc5c4)c3)CC2)C1 [EXAMPLE 290, 4-(4-{[2-(4-chlorophenyl)-5,5-dimethylcyclohex-1-en-1-yl]methyl}piperazin-1-yl)-2-(1H-indol-5-yloxy)-N-({3-nitro-4-[(tetrahydro-2H-pyran-4-ylmethyl)amino]phenyl}sulfonyl)benzamide]	>1808.5
CC1(C)CCC(CN2CCN(c3ccc(C(=O)NS(=O)(=O)c4ccc(NCC5CCS(=O)(=O)C5)c([N+](=O)[O-])c4)c(Oc4cccc5[nH]ccc45)c3)CC2)=C(c2ccc(Cl)cc2)C1 (stereo not drawn) [EXAMPLE 326, 4-(4-{[2-(4-chlorophenyl)-4,4-dimethylcyclohex-1-en-1-yl]methyl}piperazin-1-yl)-N-[(4-{[(1,1-dioxidotetrahydrothien-3-yl)methyl]amino}-3-nitrophenyl)sulfonyl]-2-(1H-indol-4-yloxy)benzamide]	>5708.8
CC1(C)CCC(CN2CCN(c3ccc(C(=O)NS(=O)(=O)c4ccc(NCC5CCOCC5)c([N+](=O)[O-])c4)c(Oc4cccc5[nH]ncc45)c3)CC2)=C(c2ccc(Cl)cc2)C1 [EXAMPLE 400, 4-(4-{[2-(4-chlorophenyl)-4,4-dimethylcyclohex-1-en-1-yl]methyl}piperazin-1-yl)-2-(1H-indazol-4-yloxy)-N-({3-nitro-4-[(tetrahydro-2H-pyran-4-ylmethyl)amino]phenyl}sulfonyl)benzamide]	>3643.8
CC1(C)CCC(CN2CCN(c3ccc(C(=O)NS(=O)(=O)c4ccc(NC5CCN(Cc6nccs6)CC5)c([N+](=O)[O-])c4)c(Oc4ccc5[nH]ccc5c4)c3)CC2)=C(c2ccc(Cl)cc2)C1 [EXAMPLE 230, 4-(4-{[2-(4-chlorophenyl)-4,4-dimethylcyclohex-1-en-1-yl]methyl}piperazin-1-yl)-2-(1H-indol-5-yloxy)-N-[(3-nitro-4-{[1-(1,3-thiazol-2-ylmethyl)piperidin-4-yl]amino}phenyl)sulfonyl]benzamide]	>74.8
CC1(C)CCC(CN2CCN(c3ccc(C(=O)NS(=O)(=O)c4cnc(OC[C@H]5CC[C@H](O)CC5)c(Cl)c4)c(Oc4cccc5[nH]ncc45)c3)CC2)=C(c2ccc(Cl)cc2)C1 [EXAMPLE 421, Trans-N-({5-chloro-6-[(4-hydroxycyclohexyl)methoxy]pyridin-3-yl}sulfonyl)-4-(4-{[2-(4-chlorophenyl)-4,4-dimethylcyclohex-1-en-1-yl]methyl}piperazin-1-yl)-2-(1H-indazol-4-yloxy)benzamide]	2090
CC1(C)CCC(CN2CCN(c3ccc(C(=O)NS(=O)(=O)c4ccc(NC5CCN(CC6CC6)CC5)c([N+](=O)[O-])c4)c(Oc4ccc5[nH]ccc5c4)c3)CC2)=C(c2ccc(Cl)cc2)C1 [EXAMPLE 214, 4-(4-{[2-(4-chlorophenyl)-4,4-dimethylcyclohex-1-en-1-yl]methyl}piperazin-1-yl)-N-[(4-{[1-(cyclopropylmethyl)piperidin-4-yl]amino}-3-nitrophenyl)sulfonyl]-2-(1H-indol-5-yloxy)benzamide]	776.6
CC1(C)CCC(CN2CCN(c3ccc(C(=O)NS(=O)(=O)c4ccc(NC5CCC(N6CCOCC6)CC5)c([N+](=O)[O-])c4)c(Oc4ccc5[nH]ccc5c4)c3)CC2)=C(c2ccc(Cl)cc2)C1 (stereo not drawn) [EXAMPLE 363, 4-(4-{[2-(4-chlorophenyl)-4,4-dimethylcyclohex-1-en-1-yl]methyl}piperazin-1-yl)-2-(1H-indol-5-yloxy)-N-({4-[(4-morpholin-4-ylcyclohexyl)amino]-3-nitrophenyl}sulfonyl)benzamide]	>3670.5
CC1(C)CCC(CN2CCN(c3ccc(C(=O)NS(=O)(=O)c4cccc(C(=O)NCC5CCOCC5)c4)c(Oc4ccc5[nH]ccc5c4)c3)CC2)=C(c2ccc(Cl)cc2)C1 [EXAMPLE 345, 4-(4-{[2-(4-chlorophenyl)-4,4-dimethylcyclohex-1-en-1-yl]methyl}piperazin-1-yl)-2-(1H-indol-5-yloxy)-N-[(3-{[(tetrahydro-2H-pyran-4-ylmethyl)amino]carbonyl}phenyl)sulfonyl]benzamide]	>575.9
CN1CCC(Nc2ccc(S(=O)(=O)NC(=O)c3ccc(N4CCN(CC5=C(c6ccc(Cl)cc6)CC(C)(C)CC5)CC4)cc3Nc3cccnc3)cc2[N+](=O)[O-])CC1 [EXAMPLE 396, 4-(4-{[2-(4-chlorophenyl)-4,4-dimethylcyclohex-1-en-1-yl]methyl}piperazin-1-yl)-N-({4-[(1-methylpiperidin-4-yl)amino]-3-nitrophenyl}sulfonyl)-2-(pyridin-3-ylamino)benzamide]	>5706
CC(=O)N1CCC(Nc2ccc(S(=O)(=O)NC(=O)c3ccc(N4CCN(CC5=C(c6ccc(Cl)cc6)CC(C)(C)CC5)CC4)cc3Oc3cccc4[nH]ccc34)cc2[N+](=O)[O-])CC1 [EXAMPLE 337, N-({4-[(1-acetylpiperidin-4-yl)amino]-3-nitrophenyl}sulfonyl)-4-(4-{[2-(4-chlorophenyl)-4,4-dimethylcyclohex-1-en-1-yl]methyl}piperazin-1-yl)-2-(1H-indol-4-yloxy)benzamide]	>1233.3
CN1CCC(O)(CNc2ccc(S(=O)(=O)NC(=O)c3ccc(N4CCN(CC5=C(c6ccc(Cl)cc6)CC(C)(C)CC5)CC4)cc3Oc3ccc4[nH]ccc4c3)cc2[N+](=O)[O-])CC1 [EXAMPLE 183, 4-(4-{[2-(4-chlorophenyl)-4,4-dimethylcyclohex-1-en-1-yl]methyl}piperazin-1-yl)-N-[(4-{[(4-hydroxy-1-methylpiperidin-4-yl)methyl]amino}-3-nitrophenyl)sulfonyl]-2-(1H-indol-5-yloxy)benzamide]	240.5
CC1(C)CCC(CN2CCN(c3ccc(C(=O)NS(=O)(=O)c4ccc(NCC5CCC(F)(F)CC5)c([N+](=O)[O-])c4)c(Oc4cccc5[nH]cnc45)c3)CC2)=C(c2ccc(Cl)cc2)C1 [EXAMPLE 456, 2-(1H-benzimidazol-4-yloxy)-4-(4-{[2-(4-chlorophenyl)-4,4-dimethylcyclohex-1-en-1-yl]methyl}piperazin-1-yl)-N-[(4-{[(4,4-difluorocyclohexyl)methyl]amino}-3-nitrophenyl)sulfonyl]benzamide]	53.991
CN(C)CCCNc1ccc(S(=O)(=O)NC(=O)c2ccc(N3CCN(Cc4ccccc4-c4ccc(Cl)cc4)CC3)cc2Oc2cccc3cnccc23)cc1[N+](=O)[O-] [Example 42, 4-{4-[(4′-chloro-1,1′-biphenyl-2-yl)methyl]piperazin-1-yl}-N-[(4-{[3-(dimethylamino)propyl]amino}-3-nitrophenyl)sulfonyl]-2-(isoquinolin-5-yloxy)benzamide]	80
CN1CCN(Nc2ccc(S(=O)(=O)NC(=O)c3ccc(N4CCN(CC5=C(c6ccc(Cl)cc6)CC(C)(C)CC5)CC4)cc3Oc3ccc4[nH]ccc4c3)cc2S(=O)(=O)C(F)(F)F)CC1 [EXAMPLE 220, 4-(4-{[2-(4-chlorophenyl)-4,4-dimethylcyclohex-1-en-1-yl]methyl}piperazin-1-yl)-2-(1H-indol-5-yloxy)-N-({4-[(4-methylpiperazin-1-yl)amino]-3-[(trifluoromethyl)sulfonyl]phenyl}sulfonyl)benzamide]	163.7

From patent US9125913B2, “Bcl-2-selective apoptosis-inducing agents for the treatment of cancer and immune diseases” (AbbVie Inc., priority 2008, dated 2015)
